Results from US7678831B2, “Butanoic acid derivatives, processes for the preparation thereof, pharmaceutical compositions comprising them, and therapeutic applications thereof” (Merck Patent GmbH, priority 2004, dated 2010).
Marks after values point to notes of the source that are not given here.

What was measured:
[1] = biological target: T1, chimeric protein PPARα-Gal4 (Homo sapiens, UniProt Q07869); assay: PPAR activation, Gal4 chimera luciferase reporter gene in co-transfected CV-1 cells; assay type: cell-based; settings: 50 μM, 18 hours contact, CV-1 cells (monkey kidney cells)
T1 construct: Gal4 (fusion partner); expressed in transfected cells; host or cells: CV-1 cells (monkey kidney cells)
T1 sequence (Q07869 239-466 limits assumed): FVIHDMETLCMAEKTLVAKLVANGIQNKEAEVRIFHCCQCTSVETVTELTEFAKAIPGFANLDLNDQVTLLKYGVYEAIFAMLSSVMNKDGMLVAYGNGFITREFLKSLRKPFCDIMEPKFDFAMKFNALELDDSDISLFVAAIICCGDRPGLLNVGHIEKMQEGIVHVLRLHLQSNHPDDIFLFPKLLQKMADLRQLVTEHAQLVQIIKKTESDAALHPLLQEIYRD
Method: (§1) The measurement of the PPAR activation was performed according to a technique described by Lehmann et al. (J. Biol. Chem., 270, (1995), 12953-12956).
(§2) CV-1 cells (monkey kidney cells) are co-transfected with an expression vector for the chimeric proteins PPARα-Gal4 or PPARγ-Gal4 and with a “reporter” plasmid that allows the expression of the luciferase gene placed under the control of a promoter comprising Gal4 response elements.
(§3) The cells are plated into 96-well microplates and co-transfected using a commercial reagent with the reporter plasmid (pG5-tk-pGL3) and the expression vector for the chimeric protein (PPARα-Gal4 or PPARγ-Gal4). After incubating for 4 hours, whole culture medium (comprising 10% foetal calf serum) is added to the wells. After 24 hours, the medium is removed and replaced with whole medium comprising the test products (50 μM final). The products are left in contact with the cells for 18 hours. The cells are then lysed and the luciferase activity is measured using a luminometer. A PPAR activation factor can then be calculated by means of activation of the expression of the reporter gene induced by the product (relative to the control cells that have not received any product).

[2] = biological target: T2, chimeric protein PPARγ-Gal4 (Homo sapiens, UniProt P37231); assay: as above; assay type: cell-based; settings: 50 μM, 18 hours contact, CV-1 cells (monkey kidney cells)
T2 construct: Gal4 (fusion partner); expressed in transfected cells; host or cells: CV-1 cells (monkey kidney cells)
T2 sequence (P37231 238-503 limits assumed): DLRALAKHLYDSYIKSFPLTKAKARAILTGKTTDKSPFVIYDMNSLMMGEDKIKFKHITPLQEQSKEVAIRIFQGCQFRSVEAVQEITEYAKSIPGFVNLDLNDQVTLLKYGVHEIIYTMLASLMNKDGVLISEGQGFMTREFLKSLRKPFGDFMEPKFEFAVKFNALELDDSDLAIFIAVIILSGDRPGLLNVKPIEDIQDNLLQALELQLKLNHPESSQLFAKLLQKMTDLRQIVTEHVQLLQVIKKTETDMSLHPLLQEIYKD
Method: as §1, §2, §3

[3] = system: db/db mice; assay: Antidiabetic and hypolipidaemiant activity, oral, in db/db mice; assay type: in vivo; settings: 20 mg/kg/day orally for 15 days
Method: The antidiabetic and hypolipidaemiant activity of the compounds according to the invention was determined orally on db/db mice.
15-week-old db/db mice are treated orally for 15 days with the compound of Example 18 (20 mg/kg/day). Each group studied comprises seven animals. After treatment for 15 days, retro-orbital samples are taken under mild anaesthesia and after fasting for four hours.
The following parameters were measured:
Assay of the glycaemia (glucose oxidase) and of the lipid parameters on the sera at D15 (COBAS): triglycerides, total cholesterol (CHOL), HDL cholesterol (HDL-C) and free fatty acids (FFA) (BioMérieux and Waco Chemicals assay kit).
The measurements reported represent mean values±standard error.

[4] = system: Gal4 alone; assay: Control reporter test without the PPAR ligand binding domain (vector expressing Gal4 alone); assay type: cell-based; settings: CV-1 cells
Method: CV-1 cells (monkey kidney cells) are co-transfected with an expression vector for the chimeric proteins PPARα-Gal4 or PPARγ-Gal4 and with a “reporter” plasmid that allows the expression of the luciferase gene placed under the control of a promoter comprising Gal4 response elements. The cells are plated into 96-well microplates and co-transfected using a commercial reagent with the reporter plasmid (pG5-tk-pGL3) and the expression vector for the chimeric protein (PPARα-Gal4 or PPARγ-Gal4). After incubating for 4 hours, whole culture medium (comprising 10% foetal calf serum) is added to the wells. After 24 hours, the medium is removed and replaced with whole medium comprising the test products (50 μM final). The products are left in contact with the cells for 18 hours. The cells are then lysed and the luciferase activity is measured using a luminometer. A PPAR activation factor can then be calculated by means of activation of the expression of the reporter gene induced by the product (relative to the control cells that have not received any product). […] In the absence of the binding domain for the PPAR α or γ ligand (vector expressing Gal4 alone), the luciferase activity measured in the presence of this product is zero.

[5] = serum at D15, fasting four hours, mean ± standard error

melting point | Structure (SMILES) | further results
176 to 177 °C | O=C(O)[C@H](CCc1ccccc1)Oc1ccc(-c2ccsc2)cc1 [Example 8] | 
151 to 153 °C | O=C(O)[C@H](CCc1ccccc1)Oc1ccc(-c2cccs2)cc1 [Example 9] | 
188 to 190 °C | O=C(O)C(CCc1ccc(F)cc1)Oc1ccc(-c2cc3ccccc3s2)cc1 (stereo not shown) [Example 146] | 
 | O=C(O)[C@H](CCc1ccccc1)Oc1ccc(-c2ccc(Cl)s2)cc1 [Example 18, (2S)-2-[4-(5-chlorothien-2-yl)phenoxy]-4-phenylbutanoic acid] | PPAR activation factor (reporter gene expression relative to control cells) [1]: 16; PPAR activation factor (reporter gene expression relative to control cells) [2]: 41; CHOL, % var. (percentage of variation versus control) ([3]; D15): +25 ** %; FFA, % var. (percentage of variation versus control) ([3]; D15): −40 ** %; Glycaemia, % var. (percentage of variation versus control) ([3]; D15): −53 ** %; HDL-C, % var. (percentage of variation versus control) ([3]; D15): +10 * %; Triglycerides, % var. (percentage of variation versus control) ([3]; D15): −41 ** %; CHOL (total cholesterol) [3, 5]: 4.57 ± 0.51 mM; FFA (free fatty acids) [3, 5]: 0.42 ± 0.06 mM; Glycaemia [3, 5]: 12.65 ± 7.0 Mm; HDL-C [3, 5]: 3.53 ± 0.24 mM; Triglycerides [3, 5]: 0.77 ± 0.16 mM; luciferase activity in the absence of the binding domain for the PPAR α or γ ligand [4]: zero
198 to 199 °C | COc1ccc(CCC(Oc2ccc(-c3cc4ccccc4s3)cc2)C(=O)O)cc1 (stereo not shown) [Example 142] | 
102 to 104 °C | O=C(O)C(CCc1ccco1)Oc1ccc(Br)cc1 (stereo not shown) [Example 227] | 
140 °C | O=C(O)[C@H](CCc1ccccc1)Oc1ccc(-c2cccnc2)cc1 [Example 7] | 
124 °C | O=C(O)[C@H](CCc1ccccc1)Oc1cccc(OCc2ccc3ccccc3n2)c1 [Example 143] | 
148 °C | O=C(c1ccc(Cl)cc1)c1ccc(O[C@@H](CCc2ccccc2)C(=O)O)cc1 [Example 6] | 
198 °C | O=C(O)[C@H](CCc1ccccc1)Oc1ccc(-c2cc3ccccc3o2)cc1 [Example 144] | 
136 °C | O=C(O)C(CCc1ccccc1)Oc1ccc2oc3ccccc3c2c1 (stereo not shown) [Example 152] | 
165 °C | Cc1cc(OC(CCc2ccccc2)C(=O)O)cc(=O)o1 (stereo not shown) [Example 207] | 
116 to 118 °C | O=C(O)C(CCc1cccs1)Oc1ccc(C(F)(F)F)cc1 (stereo not shown) [Example 229] | 
109 to 110 °C | O=C(O)C(CCc1cccc(Cl)c1)Oc1ccc(-c2cc3ccccc3s2)cc1 (stereo not shown) [Example 141] | 
150 to 152 °C | Cc1nc(-c2ccc(O[C@@H](CCc3ccccc3)C(=O)O)cc2)cs1 [Example 26] | 
99 to 99.5 °C | O=C(O)C(CCc1ccco1)Oc1ccc(C(F)(F)F)cc1 (stereo not shown) [Example 228] | 
